In brackets after ≈: the same amount, converted by molar mass. Read-outs that look alike come from different tables or passages of the source.
Key:
[1] = Solubilities of weakly basic drugs in organic acid buffers
[2] = PK modeling (WinNonlin 1-compartment fit, Stella simulation) of 8 mg ondansetron hydrochloride IR tablet plasma data
Procedure: In order to assess the type of in vitro release profile needed to achieve a once-daily plasma concentration profile, a modeling exercise was performed using the pharmacokinetic parameters for ondansetron hydrochloride reported in “Ondansetron Absorption in Adults: Effect of Dosage Form, Food, and Antacids” in Journal of Pharmaceutical Sciences Vol. (1994) by Bozigian et al. Mean plasma concentrations achieved in 24 healthy, adult male volunteers, who received a single 8 mg ondansetron hydrochloride IR tablet in the fasted state, were used using the software program, WinNonlin™ Standard Version 2.1 to fit a 1-compartment first order model with a lag-time assuming first order elimination kinetics.
The primary parameters were then input into another software, Stella Version 6.01 using a previously established model with slight modifications. Different in vitro release profiles were generated, and from target once-daily release profiles, desired in vitro release (medium, target and fast) profiles were generated by deconvolution.

[3] = pH-dependent solubility; type: physicochemical
Text: Although carvedilol's solubility is similarly pH-dependent and varying, it is not obvious from FIG. 1 as it rapidly undergoes in situ salt formation with the buffering agent such as citric, acetic, and hydrochloric acids and consequently, the observed solubility is that of the salt formed in-situ.

[4] = in vivo; cited from earlier work
[5] = physchem
[6] = single 8 mg IR tablet, fasted, 1-compartment model fit
[7] = single 8 mg IR tablet, fasted, secondary parameter

Which “solubility enhancement by organic acid” value ([1]; Group C actives) does the source give for `O=C1CN=C(c2ccccc2Cl)c2cc([N+](=O)[O-])ccc2N1` [Clonazepam] here?
Its value is “less than 3 fold”.

What about the solubility ([1]; pH 2.3, aqueous buffer, solubility, fumaric acid buffer at pH 2.3 (higher acid concentration)) of the same molecule?
The solubility was ~11.6 µg/mL (≈ 36.7 µM).

And the solubility ([1]; pH 3.2, aqueous buffer, Solubility (mg/mL) of Clonazepam in Fumaric Acid, pH of buffer 3.2)?
Its solubility is 9.6 µg/mL (≈ 30.4 µM).

And the solubility ([1]; pH 3.7, aqueous buffer, Solubility (mg/mL) of Clonazepam in Fumaric Acid, pH of buffer 3.7)?
The solubility was 9.8 µg/mL (≈ 31 µM).

And the solubility ([1]; pH 4.8, aqueous buffer, Solubility (mg/mL) of Clonazepam in Fumaric Acid, pH of buffer 4.8)?
Its solubility is 9.5 µg/mL (≈ 30.1 µM).

What about the solubility ([1]; pH 5.5, aqueous buffer, Solubility (mg/mL) of Clonazepam in Fumaric Acid, pH of buffer 5.5) of the same molecule?
Its solubility is 9.3 µg/mL (≈ 29.5 µM).

And the solubility ([1]; pH 6.2, aqueous buffer, Solubility (mg/mL) of Clonazepam in Fumaric Acid, pH of buffer 6.2)?
The solubility was 7.2 µg/mL (≈ 22.8 µM).

What about the solubility ([1]; pH 6.8, aqueous buffer, Solubility (mg/mL) of Clonazepam in Fumaric Acid, pH of buffer 6.8) of the same molecule?
Its solubility is 6.9 µg/mL (≈ 21.9 µM).

And the solubility ([1]; pH 6.8, aqueous buffer, solubility, fumaric acid buffer at pH 6.8 (lower acid concentration))?
Its solubility is ~6.9 µg/mL (≈ 21.9 µM).

What about the “Solubility (mg/mL) of Clonazepam in Fumaric Acid” value ([1]; pH of buffer 2.3) of the same molecule?
The value was 0.0116 mg/mL.

What about the “Solubility (mg/mL) of Clonazepam in Fumaric Acid” value ([1]; pH of buffer 2.8) of the same molecule?
Its value is 0.0103 mg/mL.

Which t1/2 ([2]; male, human, plasma) does the source give for `Cc1nccn1CC1CCc2c(c3ccccc3n2C)C1=O.Cl.O.O` (racemic) [Ondansetron Hydrochloride, (±) 1,2,3,9-tetrahydro-9-methyl-3-[(2-methyl-1H-imidazole-1-yl)methyl]-4H-carbazol-4-one monohydrochloride dihydrate] here?
Its t1/2 is 3.65 h.

And the Vd ([2]; single 8 mg IR tablet, fasted, 24 healthy adult male volunteers, 1-compartment first order model fit)?
The Vd was 238.26.

And the Ka [2, 6]?
The Ka was 1.49 per hour.

And the Ke [2, 6]?
The Ke was 0.19 per hr.

And the Tlag [2, 6]?
Its Tlag is 0.41 h.

What about the AUC [2, 7] of the same molecule?
Its AUC is 170 ng·h/mL.

And the Cl [2, 7]?
Its Cl is 46.06 L/h.

What about the Cm [2, 7] of the same molecule?
Its Cm is 0.0248 mg/L.

What about the Tmax [2, 7] of the same molecule?
The Tmax was 1.98 h.

And the solubility ([3]; aqueous buffer, at pH 6.8)?
Its solubility is ~50 µg/mL.

What about the “ratio of optimal highest dose (mg) to the solubility (mg/mL) at pH 6.8” value ([3]; optimal highest dose 16 or 24 mg, pH 6.8) of the same molecule?
Its value is 320.

What about the solubility ([1]; pH 2.01, aqueous buffer, Solubility of Ondansetron Hydrochloride, fumaric acid 5 mg/mL, start pH 2.13, end pH 2.01) of the same molecule?
The solubility was 26900 µg/mL.

What about the solubility ([1]; pH 2.14, aqueous buffer, Solubility of Ondansetron Hydrochloride, fumaric acid 2.5 mg/mL, start pH 2.26, end pH 2.14) of the same molecule?
Its solubility is 27000 µg/mL.

And the solubility ([1]; pH 2.4, aqueous buffer, Solubility of Ondansetron Hydrochloride, fumaric acid 1 mg/mL, start pH 2.48, end pH 2.40)?
Its solubility is 26100 µg/mL.

And the solubility ([1]; pH 2.75, aqueous buffer, Solubility of Ondansetron Hydrochloride, fumaric acid 0.25 mg/mL, start pH 2.79, end pH 2.75)?
Its solubility is 26200 µg/mL.

What about the solubility ([1]; pH 3.49, aqueous buffer, Solubility of Ondansetron Hydrochloride, fumaric acid 0.05 mg/mL, start pH 3.19, end pH 3.49) of the same molecule?
The solubility was 26000 µg/mL.

What about the solubility ([1]; pH 3.49, aqueous buffer, solubility, buffer containing only 0.05 mg/mL of fumaric acid, unchanged up to 5 mg/mL) of the same molecule?
The solubility was ~26000 µg/mL.

And the solubility ([1]; pH 4.05, aqueous buffer, Solubility of Ondansetron Hydrochloride, fumaric acid 0.01 mg/mL, start pH 3.64, end pH 4.05)?
Its solubility is 26100 µg/mL.

What about the solubility ([1]; pH 4.33, aqueous buffer, Solubility of Ondansetron Hydrochloride, fumaric acid 0.0025 mg/mL, start pH 4.15, end pH 4.33) of the same molecule?
Its solubility is 26100 µg/mL.

What about the elimination half-life [4] of the same molecule?
Its elimination half-life is “approximately 3.8±1 hrs”.

Which results are given for `COc1ccccc1OCCNCC(O)COc1cccc2[nH]c3ccccc3c12` (racemic) [Carvedilol]?
Solubility (mg/mL) of Carvedilol in Tartaric Acid (pH 2.12): 2.51 mg/mL; Solubility (mg/mL) of Carvedilol in Tartaric Acid (pH 2.28): 1.36 mg/mL; Solubility (mg/mL) of Carvedilol in Tartaric Acid (pH 3.64): 0.121 mg/mL; Solubility (mg/mL) of Carvedilol in Tartaric Acid (pH 5.46): 0.105 mg/mL; Solubility (mg/mL) of Carvedilol in Tartaric Acid (pH 5.9): 0.028 mg/mL

Which results are given for `Nc1nnc(-c2cccc(Cl)c2Cl)c(N)n1` [Lamotrigine]?
solubility ([5]; pH 2.43, aqueous buffer): 4480 µg/mL (≈ 17500 µM); solubility ([5]; pH 3.33, aqueous buffer): 1770 µg/mL (≈ 6910 µM); solubility ([5]; pH 4.36, aqueous buffer): 1610 µg/mL (≈ 6290 µM); solubility ([5]; pH 4.97, aqueous buffer): 488 µg/mL (≈ 1910 µM); solubility ([5]; pH 5.66, aqueous buffer): 226 µg/mL (≈ 882 µM); solubility ([5]; pH 5.85, aqueous buffer): 197 µg/mL (≈ 769 µM); solubility ([5]; pH 6.5, aqueous buffer): 161 µg/mL (≈ 629 µM)

Which solubility ([3]; aqueous buffer, at pH 6.8) does the source give for `OCCN(CCO)c1nc(N2CCCCC2)c2nc(N(CCO)CCO)nc(N3CCCCC3)c2n1` [Dipyridamole] here?
Its solubility is 30 µg/mL (≈ 59.4 µM).

And the solubility ([3]; simulated gastric fluid, in 0.1N HCl)?
The solubility was ~1000 µg/mL (≈ 1980 µM).

What about the solubility ([5]; pH 2.98, aqueous buffer) of the same molecule?
The solubility was 6240 µg/mL (≈ 12400 µM).

What about the solubility ([5]; pH 3.42, aqueous buffer) of the same molecule?
The solubility was 1800 µg/mL (≈ 3570 µM).

And the solubility ([5]; pH 3.68, aqueous buffer)?
The solubility was 930 µg/mL (≈ 1840 µM).

And the solubility ([5]; pH 3.88, aqueous buffer)?
The solubility was 650 µg/mL (≈ 1290 µM).

What about the solubility ([5]; pH 4.33, aqueous buffer) of the same molecule?
Its solubility is 270 µg/mL (≈ 535 µM).

What about the solubility ([5]; pH 4.71, aqueous buffer) of the same molecule?
The solubility was 130 µg/mL (≈ 258 µM).

What about the solubility ([5]; pH 6.28, aqueous buffer) of the same molecule?
The solubility was 6 µg/mL (≈ 11.9 µM).

Source: US20070190145A1, “DRUG DELIVERY SYSTEMS COMPRISING WEAKLY BASIC SELECTIVE SEROTONIN 5-HT3 BLOCKING AGENT AND ORGANIC ACIDS” (EURAND, INC., priority 2006, published 2007)
